Assay results: ChEMBL document CHEMBL5120915, “Synthesis of Sulfur-Containing Analogues of Hedychenone, a Labdane Diterpenoid from Hedychium spicatum” (J Nat Prod, 2022)
Values after ≈ are worked out from the molar mass of the structure shown.

Legend:
[1] = Inhibition of Saccharomyces cerevisiae alpha-glucosidase using pNPG as substrate preincubated for 5 mins followed by pNPG addition and measured after 10 mins by microplate reader method
Staphylococcus aureus = experiment: Antibacterial activity against Staphylococcus aureus MTCC 96 assessed as zone of inhibition preincubated for 2 to 3 hrs followed by 12 to 24 hrs incubation at aerobic condition by well diffusion method; type: functional; conditions: time 14-27 hrs

| Structure (SMILES) | IC50 [1] | inhibition zone (IZ) (Staphylococcus aureus) |
| --- | --- | --- |
| CC1=CC(=O)[C@H]2C(C)(C)CCC[C@]2(C)[C@H]1/C=C/c1ccoc1Sc1ccc(Cl)cc1 | 9.7 µg/mL (≈ 22 µM) |  |
| CC1=CC(=O)[C@H]2C(C)(C)CCC[C@]2(C)[C@H]1/C=C/c1ccoc1Sc1ccc(F)cc1 | 9.7 µg/mL (≈ 22.8 µM) |  |
| CC1=CC(=O)[C@H]2C(C)(C)CCC[C@]2(C)[C@H]1/C=C/c1ccoc1Sc1cccc(C)c1 | 9.7 µg/mL (≈ 23.1 µM) |  |
| CC1=CC(=O)[C@H]2C(C)(C)CCC[C@]2(C)[C@H]1/C=C/c1ccoc1Sc1cccc(Cl)c1 | 9.7 µg/mL (≈ 22 µM) | 6 mm |
| CC1=CC(=O)[C@H]2C(C)(C)CCC[C@]2(C)[C@H]1/C=C/c1ccoc1Sc1ccc2ccccc2c1 | 9.7 µg/mL (≈ 21.2 µM) |  |
| CSc1ccc(Sc2occc2/C=C/[C@H]2C(C)=CC(=O)[C@H]3C(C)(C)CCC[C@]23C)cc1 | 9.7 µg/mL (≈ 21.4 µM) |  |
| CC1=CC(=O)[C@H]2C(C)(C)CCC[C@]2(C)[C@H]1/C=C/c1ccoc1Sc1ccc(Br)cc1 | 9.7 µg/mL (≈ 20 µM) |  |
| CC1=CC(=O)[C@H]2C(C)(C)CCC[C@]2(C)[C@H]1/C=C/c1ccoc1Sc1ccc(Cl)cc1Cl | 9.7 µg/mL (≈ 20.4 µM) |  |
| C[C@H]1O[C@H](O[C@H]2[C@H](O)[C@@H](O)[C@@H](O[C@H]3[C@H](O)[C@@H](O)C(O)O[C@@H]3CO)O[C@@H]2CO)[C@H](O)[C@@H](O)[C@@H]1N[C@H]1C=C(CO)[C@@H](O)[C@H](O)[C@H]1O (stereo partly specified) [ACARBOSE] | 3.95 µg/mL (≈ 6.12 µM) |  |

Continued, in another order:

| IC50 [1] | Structure (SMILES) | inhibition zone (IZ) (Staphylococcus aureus) |
| --- | --- | --- |
| 11.82 µg/mL (≈ 27.1 µM) | COc1ccccc1Sc1occc1/C=C/[C@H]1C(C)=CC(=O)[C@H]2C(C)(C)CCC[C@]12C |  |
| 13.01 µg/mL (≈ 26.8 µM) | CC1=CC(=O)[C@H]2C(C)(C)CCC[C@]2(C)[C@H]1/C=C/c1ccoc1Sc1ccccc1Br |  |
| 13.17 µg/mL (≈ 32.4 µM) | CC1=CC(=O)[C@H]2C(C)(C)CCC[C@]2(C)[C@H]1/C=C/c1ccoc1Sc1ccccc1 |  |
| 12.23 µg/mL (≈ 25.2 µM) | CC1=CC(=O)[C@H]2C(C)(C)CCC[C@]2(C)[C@H]1/C=C/c1ccoc1Sc1cccc(Br)c1 |  |
| 12.15 µg/mL (≈ 28.6 µM) | CC1=CC(=O)[C@H]2C(C)(C)CCC[C@]2(C)[C@H]1/C=C/c1ccoc1Sc1ccccc1F |  |
| 9.7 µg/mL (≈ 23.1 µM) | CC1=CC(=O)[C@H]2C(C)(C)CCC[C@]2(C)[C@H]1/C=C/c1ccoc1Sc1ccccc1C |  |
| 9.7 µg/mL (≈ 22.8 µM) | CC1=CC(=O)[C@H]2C(C)(C)CCC[C@]2(C)[C@H]1/C=C/c1ccoc1Sc1cccc(F)c1 |  |
| 13.34 µg/mL (≈ 31.7 µM) | CC1=CC(=O)[C@H]2C(C)(C)CCC[C@]2(C)[C@H]1/C=C/c1ccoc1SCc1ccccc1 |  |
| 9.7 µg/mL (≈ 22 µM) | CC1=CC(=O)[C@H]2C(C)(C)CCC[C@]2(C)[C@H]1/C=C/c1ccoc1Sc1ccccc1Cl |  |
| 9.7 µg/mL (≈ 21.3 µM) | CC1=CC(=O)[C@H]2C(C)(C)CCC[C@]2(C)[C@H]1/C=C/c1ccoc1SCc1ccc(Cl)cc1 |  |
| 9.7 µg/mL (≈ 22.1 µM) | CC1=CC(=O)[C@H]2C(C)(C)CCC[C@]2(C)[C@H]1/C=C/c1ccoc1SCc1ccc(F)cc1 |  |
